Experimental data as given in the supplement of paper PMC10307832.

Columns and labels:
Assay in all cases: relative viability (nuclei count vs DMSO), 5 days (fraction); higher = more cells survive
AT-7519 + OSI-027 = compound: O=C(NC1CCNCC1)c1n[nH]cc1NC(=O)c1c(Cl)cccc1Cl [AT-7519] + COc1cccc2cc(-c3nc([C@H]4CC[C@H](C(=O)O)CC4)n4ncnc(N)c34)[nH]c12 [OSI-027] (partner 0.5 µM)
Method in brief: (§1)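 Dosing by pin tool came one day after lung cancer cell lines were seeded in 1536-well plates, using either one drug or a fixed anchor-drug dose plus five library-drug doses (not always all listed) in √10 steps. After 5 days, nuclei were counted on 4× images. Relative viability is treated-well nuclei count divided by vehicle-well nuclei count, and values are medians of duplicate plates.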

AT-7519 + AZD7762 = compound: O=C(NC1CCNCC1)c1n[nH]cc1NC(=O)c1c(Cl)cccc1Cl [AT-7519] + NC(=O)Nc1cc(-c2cccc(F)c2)sc1C(=O)N[C@H]1CCCNC1 [AZD7762] (partner 0.2 µM)
Method in brief: as §1

[1] = compound: C1=CC2=C(C=C(C(=C2N=C1)O)N=NC3=CC4=C(C=C3)C=C(C=C4)S(=O)(=O)O)S(=O)(=O)O + CS(=O)(=O)N1CCN(Cc2cc3nc(-c4cccc5[nH]ncc45)nc(N4CCOCC4)c3s2)CC1 [Pictilisib] (partner 1 µM)
Method in brief: as §1

[2] = compound: C1=CC2=C(C=C(C(=C2N=C1)O)N=NC3=CC4=C(C=C3)C=C(C=C4)S(=O)(=O)O)S(=O)(=O)O + CCNC(=O)c1noc(-c2cc(C(C)C)c(O)cc2O)c1-c1ccc(CN2CCOCC2)cc1 [Luminespib] (partner 0.01 µM)
Method in brief: as §1

Cell Line	relative viability (AT-7519 + OSI-027; first compound 0.01 µM)	relative viability (AT-7519 + OSI-027; first compound 0.03162 µM)	relative viability (AT-7519 + OSI-027; first compound 0.3162 µM)	relative viability (AT-7519 + OSI-027; first compound 1 µM)	relative viability (AT-7519 + AZD7762; first compound 0.01 µM)	relative viability (AT-7519 + AZD7762; first compound 0.03162 µM)	relative viability (AT-7519 + AZD7762; first compound 0.3162 µM)	relative viability (AT-7519 + AZD7762; first compound 1 µM)	relative viability ([1]; first compound 0.08 µM)	relative viability ([1]; first compound 0.253 µM)	relative viability ([1]; first compound 0.8 µM)	relative viability ([1]; first compound 2.53 µM)	relative viability ([1]; first compound 8 µM)	relative viability ([2]; first compound 0.08 µM)	relative viability ([2]; first compound 0.253 µM)	relative viability ([2]; first compound 0.8 µM)	relative viability ([2]; first compound 2.53 µM)	relative viability ([2]; first compound 8 µM)
HOP-62	0.857	0.675	0.846	0.809	0.589	0.557	0.621	0.743	0.842	0.707	0.651	0.723	0.691	0.878	0.773	0.916	0.919	0.898
IA-LM									0.302	0.312	0.283	0.347	0.322					
LC-2-ad	0.733	0.866	0.862	0.514	0.77	0.844	0.826	0.945	0.429	0.476	0.532	0.405	0.423	0.989	1.04	1.05	1.1	0.834
LCLC-97TM1	0.566	0.616	0.422	0.21	0.24	0.294	0.335	0.394		0.239		0.149	0.222	0.963	0.678	0.714	0.805	0.801
LCLC-103H	0.455	0.479	0.46	0.456	0.8	0.739	0.807	0.901	0.662	0.625	0.489	0.615	0.705	1.09	0.902	1.09	0.96	0.957
LK-2	0.182	0.217	0.19	0.189	0.456	0.329	0.347	0.19	0.677	0.522	0.613	0.541	0.552	0.156	0.292	0.181	0.231	0.179
LOU-NH91	0.738	0.742	0.72	0.711	0.755	0.79	0.643	0.713	0.57	0.523	0.539	0.486	0.524	0.418	0.354	0.327	0.373	0.341
NCI-H520	0.254	0.285	0.26	0.241					0.298	0.282	0.332	0.26	0.269	0.237	0.218	0.237	0.225	0.231
NCI-H522		0.77	0.609	0.792	1	0.661	0.859	0.904						1.21	1.19	0.983	1.16	1.11
NCI-H661	0.671	0.694	0.564	0.333					0.372	0.345	0.359	0.517	0.353	0.932	0.887	0.847	0.945	0.849
NCI-H1299									0.755	0.823	0.821	0.87	0.623					
